Experimental data as given in patent publication US20100267561A1, “HERBICIDAL PYRIDAZINONE DERIVATIVES” (priority 2007, published 2010).

How the values were obtained:
Format in all cases: in vivo
[1] = system: Italian ryegrass (Lolium multiflorum); assay: Test B pre-/postemergence plant response; conditions: Preemergence
Outline: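 Seeds were sown and sprayed preemergence, while plants at 2 to 18 cm (1- to 4-leaf stage) got postemergence sprays. Compounds were formulated in a non-phytotoxic solvent mixture with surfactant. After 13 to 15 days in a greenhouse, injury was rated visually against untreated controls, 0 (no effect) to 100 (complete control).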

[2] = system: Italian ryegrass (Lolium multiflorum); assay: Test C pre-/postemergence plant response; conditions: Preemergence
Description: (§1) Seeds of plant species selected from annual bluegrass (Poa annua), blackgrass (Alopecurus myosuroides), canola (Brassica rapa), downy bromegrass (Bromus tectorum), green foxtail (Setaria viridis), Italian ryegrass (Lolium multiflorum), canarygrass (Phalaris minor), pigweed (Amaranthus retroflexus), spring barley (Hordeum vulgare), spring wheat (Triticum aestivum), wild mustard (Sinapis arvensis), wild oat (Avena fatua), windgrass (Apera spica-venti), winter barley (Hordeum vulgare), and winter wheat (Triticum aestivum) were planted and treated preemergence with test chemicals formulated in a non-phytotoxic solvent mixture which included a surfactant. At the same time, plants selected from these crop and weed species were treated with postemergence applications of some of the test chemicals formulated in the same manner. Plants ranged in height from 2 to 18 cm (1- to 4-leaf stage) for postemergence treatments.
(§2) Treated plants and controls were maintained in a controlled growth environment for 15 to 25 days after which time all species were compared to controls and visually evaluated. Plant response ratings, summarized in Table C, are based on a scale of 0 to 100 where 0 is no effect and 100 is complete control. A dash (-) response means no test result.

[3] = system: annual bluegrass (Poa annua); assay: Test C pre-/postemergence plant response; conditions: Preemergence
Description: as §1, §2

[4] = system: blackgrass (Alopecurus myosuroides); assay: Test C pre-/postemergence plant response; conditions: Preemergence
Description: as §1, §2

[5] = system: canarygrass (Phalaris minor); assay: Test C pre-/postemergence plant response; conditions: Preemergence
Description: as §1, §2

[6] = system: downy bromegrass (Bromus tectorum); assay: Test C pre-/postemergence plant response; conditions: Preemergence
Description: as §1, §2

[7] = system: green foxtail (Setaria viridis); assay: Test C pre-/postemergence plant response; conditions: Preemergence
Description: as §1, §2

[8] = system: pigweed (Amaranthus retroflexus); assay: Test C pre-/postemergence plant response; conditions: Preemergence
Description: as §1, §2

[9] = system: spring wheat (Triticum aestivum); assay: Test C pre-/postemergence plant response; conditions: Preemergence
Description: as §1, §2

[10] = system: wild mustard (Sinapis arvensis); assay: Test C pre-/postemergence plant response; conditions: Preemergence, 31 g ai/ha; scale 0 to 100 (0 no effect, 100 complete control)
Description: as §1, §2

wild oat (Avena fatua) = assay: Test C pre-/postemergence plant response; conditions: Preemergence
Description: as §1, §2

[11] = system: windgrass (Apera spica-venti); assay: Test C pre-/postemergence plant response; conditions: Preemergence, 62 g ai/ha; scale 0 to 100, 0 no effect, 100 complete control
Description: as §1, §2

[12] = system: winter barley (Hordeum vulgare); assay: Test C pre-/postemergence plant response; conditions: Preemergence
Description: as §1, §2

[13] = system: winter wheat (Triticum aestivum); assay: Test C pre-/postemergence plant response; conditions: Preemergence
Description: as §1, §2

[14] = 8 g ai/ha, scale 0 to 100 (0 no effect, 100 complete control)
[15] = 16 g ai/ha, scale 0 to 100 (0 no effect, 100 complete control)
[16] = 31 g ai/ha, scale 0 to 100 (0 no effect, 100 complete control)
[17] = 62 g ai/ha, scale 0 to 100, 0 no effect, 100 complete control

## Cc1cn(-c2ccc(Cl)cc2)nc1-c1c(O)cnn(C)c1=O [Compound 30, 4-[1-(4-chlorophenyl)-4-methyl-1H-pyrazol-3-yl]-5-hydroxy-2-methyl-3(2H)-pyridazinone]
[1]; Lolium multiflorum, pre-emergence, 16 g ai/ha, scale 0 to 100 (0 no effect, 100 complete control), read-out: Plant response rating, Ryegrass, Italian
  pest or weed control at 16 g/ha: 10%
[1]; Lolium multiflorum, pre-emergence, 31 g ai/ha, 0 to 100 scale, 0 no effect, 100 complete control, read-out: Plant response rating, Ryegrass, Italian
  pest or weed control at 31 g/ha: 50%
[1]; Lolium multiflorum, pre-emergence, 62 g ai/ha, scale 0 to 100, read-out: Plant response rating, Ryegrass, Italian
  pest or weed control at 62 g/ha: 100%
[1]; 8 g ai/ha, scale 0 to 100
  Ryegrass, Italian plant response rating: 0
[2]; [14]
  Plant response rating, Ryegrass, Italian: 0
[2]; [15]
  Plant response rating, Ryegrass, Italian: 30
[2]; [16]
  Plant response rating, Ryegrass, Italian: 60
[2]; [17]
  Plant response rating, Ryegrass, Italian: 75
[3]; [14]
  Plant response rating, Bluegrass: 0
[3]; [15]
  Plant response rating, Bluegrass: 0
[3]; [16]
  Plant response rating, Bluegrass: 0
[3]; [17]
  Plant response rating, Bluegrass: 0
[4]; [14]
  Plant response rating, Blackgrass: 0
[4]; [15]
  Plant response rating, Blackgrass: 20
[4]; [16]
  Plant response rating, Blackgrass: 90
[4]; [17]
  Plant response rating, Blackgrass: 98
[5]; [14]
  Plant response rating, Canarygrass: 0
[5]; [15]
  Plant response rating, Canarygrass: 0
[5]; [16]
  Plant response rating, Canarygrass: 65
[5]; [17]
  Plant response rating, Canarygrass: 90
[6]; [14]
  Plant response rating, Bromegrass, Downy: 0
[6]; [15]
  Plant response rating, Bromegrass, Downy: 0
[6]; [16]
  Plant response rating, Bromegrass, Downy: 0
[6]; [17]
  Plant response rating, Bromegrass, Downy: 0
[7]; [14]
  Plant response rating, Foxtail, Green: 10
[7]; [15]
  Plant response rating, Foxtail, Green: 25
[7]; [16]
  Plant response rating, Foxtail, Green: 80
[7]; [17]
  Plant response rating, Foxtail, Green: 100
[8]; [14]
  Plant response rating, Pigweed: 0
[8]; [15]
  Plant response rating, Pigweed: 0
[8]; [16]
  Plant response rating, Pigweed: 0
[8]; [17]
  Plant response rating, Pigweed: 0
[9]; [14]
  Plant response rating, Wheat, Spring: 0
[9]; [15]
  Plant response rating, Wheat, Spring: 0
[9]; [16]
  Plant response rating, Wheat, Spring: 0
[9]; [17]
  Plant response rating, Wheat, Spring: 20
[10]
  Plant response rating, Mustard, Wild: 0
Wild oat (Avena fatua); [14]
  Plant response rating, Oat, Wild: 0
Wild oat (Avena fatua); [15]
  Plant response rating, Oat, Wild: 0
Wild oat (Avena fatua); [16]
  Plant response rating, Oat, Wild: 30
Wild oat (Avena fatua); [17]
  Plant response rating, Oat, Wild: 40
[11]
  Plant response rating, Windgrass: 35
[12]; [14]
  Plant response rating, Barley, Winter: 0
[12]; [15]
  Plant response rating, Barley, Winter: 0
[12]; [16]
  Plant response rating, Barley, Winter: 0
[12]; [17]
  Plant response rating, Barley, Winter: 15
[13]; [14]
  Plant response rating, Wheat, Winter: 0
[13]; [15]
  Plant response rating, Wheat, Winter: 0
[13]; [16]
  Plant response rating, Wheat, Winter: 0
[13]; [17]
  Plant response rating, Wheat, Winter: 0
